# pIC50: −log10 of the molar value. Counter-ions that a name gives are not always drawn.
# Test system: not listed separately
# Assay: solubility
# Format: physicochemical
# Conditions: in DMSO
row,Compound,soluble in DMSO up to
1,O=C1c2ccccc2OCN1CCN1CCN(c2cccc(C(F)(F)F)c2)CC1 [Example 10],up to 7%
2,"COc1ccccc1N1CCN(CCN2COc3ccc(C)cc3C2=O)CC1 [Example 13, Hydrochloride of 2.3-dihydro-6-methyl-3-[2-(4-(2-methoxyphenyl)piperazinyl)ethyl]-4H-1,3-benzoxazin-4-one]",up to 3%
3,"CC1Oc2ccccc2C(=O)N1CCN1CCN(c2cccc(C(F)(F)F)c2)CC1 (racemic) [Example 19, Hydrate of the (dl) hydrochloride of 2.3-dihydro-2-methyl-3-[2-(4-(3-trifluoromethylphenyl)piperazinyl)ethyl]-4H-1,3-benzoxazin-4-one]",up to 2%
4,"O=C1c2ccccc2OCN1CCN1CCN(c2cccc(Cl)c2)CC1 [Example 9, Hydrochloride of 2.3-dihydro-3-[2-(4-(3-chlorophenyl)piperazinyl)ethyl]-4H-1,3-benzoxazin-4-one]",up to 10%
5,"COc1ccc2c(c1)C(=O)N(CCN1CCN(c3ccccc3OC)CC1)CO2 [Example 15, Hydrochloride of 6-methoxy-2,3-dihydro-3-[2-(4-(2-methoxyphenyl)piperazinyl)ethyl]-4H-1,3-benzoxazin-4-one]",up to 1.3%
6,"COc1ccc(N2CCN(CCCCN3COc4cc(OC)c(OC)cc4C3=O)CC2)cc1OC [Example 18, Hydrochloride of 2.3-dihydro-6,7-dimethoxy-3-[4-(4-(3,4-dimethoxyphenyl)piperazinyl)butyl]-4H-1,3-benzoxazin-4-one]",up to 2%
7,"COc1ccc2c(c1)C(=O)N(CCN1CCN(c3cccc(C(F)(F)F)c3)CC1)CO2 [Example 16, Hydrochloride of 2.6-dihydro-6-methoxy-3-[2-(4-(3-trifluoromethylphenyl)piperazinyl)ethyl]-4H-1,3-benzoxazin-4-one]",up to 7%

# Now from value to compound:
row,soluble in DMSO up to,Compound
1,up to 1%,"COc1ccccc1N1CCN(CCN2COc3ccc(Cl)cc3C2=O)CC1 [Example 14, Hydrochloride of 6-chloro-2.3-dihydro-3-[2-(4-(2-methoxyphenyl)piperazinyl)ethyl]-4H-1,3-benzoxazin-4-one]"
2,up to 6%,"O=C1c2ccccc2OCN1CCCCN1CCN(c2cccc(C(F)(F)F)c2)CC1 [Example 1, Monohydrochloric 3-dihydro-3-[4-(4-(3-trifluoromethylphenyl)piperazinyl)butyl]-4H-1,3-benzoxazin-4-one]"

# Same assay, conditions: in water
row,soluble in water up to,Compound
1,up to 6%,"COc1ccccc1N1CCN(CCN2COc3ccccc3C2=O)CC1 [Example 5, Dihydrochloride of 2,3-dihydro-3-[2-(4-(2-methoxyphenyl)piperazinyl)ethyl]-4H-1,3-benzoxazin-4-one]"
2,up to 0.9%,COc1ccccc1N1CCN(CCN2COc3ccccc3C2=O)CC1 [Example 5 monohydrochloride]

# Same assay, conditions: water, in water; read-out: soluble in water up to
row,Compound,solubility
1,"Cc1ccccc1N1CCN(CCN2COc3ccccc3C2=O)CC1 [Example 8, Monohydrochloride of 2,3-dihydro-3-[2-(4-(2-methylphenyl)piperazinyl)ethyl]-4H-1,3-benzoxazin-4-one]",≤ 3500 µg/mL
2,"O=C1c2ccccc2OCN1CCN1CCN(c2ccccc2)CC1 [Example 3, Dihydrochloride of 2,3-dihydro-3-[2-(4-phenylpiperazinyl)ethyl]-4H-1,3-benzoxazin-4-one]",≤ 10000 µg/mL
3,"COc1ccccc1N1CCN(CCCCN2COc3ccccc3C2=O)CC1 [Example 7, Monohydrate of the dihydrochloride of 2,3-dihydro-3-[4-(4-(2-methoxyphenyl)piperazinyl)butyl]-4H-1,3-benzoxazin-4-one]",≤ 30000 µg/mL
4,"COc1cc2c(cc1OC)C(=O)N(CCCCN1CCN(c3ccccc3OC)CC1)CO2 [Example 17, Hydrochloride of 2.3-dihydro-6,7-dimethoxy-3-[4-(4-(2-methoxyphenyl)piperazinyl)butyl]-4H-1,3-benzoxazin-4-one]",≤ 2000 µg/mL
5,"O=C1c2ccccc2OCN1CCCN1CCN(c2ccccc2)CC1 [Example 2, Monohydrochloride of 2,3-dihydro-3-[3-(4-phenylpiperazinyl)propyl]-4H-1,3-benzoxazin-4-one]",≤ 10000 µg/mL

# Further lines, results first:
row,solubility,Compound
1,≤ 5000 µg/mL,"COc1ccccc1N1CCN(CCCN2COc3ccccc3C2=O)CC1 [Example 6, Hydrochloride of 2,3-dihydro-3-[3-(4-(2-methoxyphenyl)piperazinyl)propyl]-4H-1,3-benzoxazin-4-one]"
2,≤ 5000 µg/mL,"O=C1c2ccccc2OCN1CCCCN1CCN(c2ccccc2)CC1 [Example 4, Hydrochloride of 2.3-dihydro-3-[4-(4-phenylpiperazinyl)butyl]-4H-1,3-benzoxazin-4-one]"
3,≤ 3000 µg/mL,"O=C1c2ccccc2OCN1CCN1CCN(c2ccccn2)CC1 [Example 11, Hydrochloride of 2,3-dihydro-3-[2-(4-(2-pyridinyl)piperazinyl)ethyl]-4H-1,3-benzoxazin-4-one]"
4,≤ 12000 µg/mL,"O=C1c2ccccc2OCN1CCN1CCN(c2ncccn2)CC1 [Example 12, Hydrochloride of 2,3-dihydro-3-[2-(4-(2-pyrimidinyl)piperazinyl)ethyl]-4H-1,3-benzoxazin-4-one]"

# Biological target: T1, 5HT1 A receptors (Rattus norvegicus, UniProt P19327)
# T1 construct: The hippocampus is ground in a Polytrone; from tissue; host or cells: rat hippocampus membranes (male Charles River rats)
# T1 sequence (P19327 1-422): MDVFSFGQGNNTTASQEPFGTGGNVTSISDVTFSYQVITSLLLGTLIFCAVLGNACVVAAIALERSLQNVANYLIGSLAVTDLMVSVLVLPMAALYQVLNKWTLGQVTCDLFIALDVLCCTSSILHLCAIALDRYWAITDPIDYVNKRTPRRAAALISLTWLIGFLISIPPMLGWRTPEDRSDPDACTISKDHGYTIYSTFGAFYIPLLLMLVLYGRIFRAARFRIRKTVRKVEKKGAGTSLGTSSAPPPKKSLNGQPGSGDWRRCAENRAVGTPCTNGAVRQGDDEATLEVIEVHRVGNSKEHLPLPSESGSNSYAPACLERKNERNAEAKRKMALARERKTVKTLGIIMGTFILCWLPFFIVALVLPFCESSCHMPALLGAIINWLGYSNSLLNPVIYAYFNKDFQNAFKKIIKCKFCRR
# Assay: 5HT1 A binding (3H-8-OH-DPAT, hippocampus membranes)
# Parameters: species or system Male Charles River rats
# Conditions: 3H-8-OH-DPAT ligand 1 nM, 30 min at 25° C.
# Experimental: The 5HT1 A binding studies were carried out according to the technique of Peroutka (cf. Peroutka S. J., J. Neurochem. 47, p. 529-40, 1986). Male Charles River rats are stunned and decapitated, and the brain is removed and dissected. The different cerebral areas obtained are used or preserved at […]. The hippocampus is ground in a Polytrone® (20 seconds at 7) in 20 volumes of 50 mM tris HCl buffer pH 7.7 at 25° C.) and centrifuged at 45000 g for 10 min. The pellet is separated, taken up in the same volume of tris buffer and incubated for 10 min at 37° C. and then recentrifuged for 10 min at 45000 g. The pellet is finally taken up in 100 volumes of tris HCl buffer containing 10 μM of pargyline, 4 mM of CaCl2 and 0.1% of ascorbic acid. The mixture obtained is homogenized in a Dounce.
# The binding is carried out starting with 0.8 ml of the above membrane suspension to which 0.1 ml of ^3 H-8-OH-DPAT ligand (at a concentration of 1 nM) and either 0.1 ml of tris buffer (control) or the compound of the above invention is added. After incubation for 30 min at 25° C., the mixture is filtered on GF/B (Whatman) and rinsed with 5 ml of cold tris HCl buffer. The residue and the filter are then introduced into a vial containing 3 ml of Instagel liquid scintillant (Packard) and the radioactivity is measured in a Packard counter (Tri-Carbs).
# The IC50 are determined graphically for a concentration of ligand of 1 nM.
# Table I gives the IC50 for the 5HT1 A receptors for certain derivatives of the invention by way of nonlimiting example.
row,pIC50,Compound
1,8.30,"COc1ccccc1N1CCN(CCN2COc3ccc(Cl)cc3C2=O)CC1 [Example 14, Hydrochloride of 6-chloro-2.3-dihydro-3-[2-(4-(2-methoxyphenyl)piperazinyl)ethyl]-4H-1,3-benzoxazin-4-one]"
2,8.30,"COc1ccccc1N1CCN(CCN2COc3ccccc3C2=O)CC1 [Example 5, Dihydrochloride of 2,3-dihydro-3-[2-(4-(2-methoxyphenyl)piperazinyl)ethyl]-4H-1,3-benzoxazin-4-one]"
3,8.15,"O=C1c2ccccc2OCN1CCCCN1CCN(c2cccc(C(F)(F)F)c2)CC1 [Example 1, Monohydrochloric 3-dihydro-3-[4-(4-(3-trifluoromethylphenyl)piperazinyl)butyl]-4H-1,3-benzoxazin-4-one]"
4,8.66,"COc1ccc2c(c1)C(=O)N(CCN1CCN(c3ccccc3OC)CC1)CO2 [Example 15, Hydrochloride of 6-methoxy-2,3-dihydro-3-[2-(4-(2-methoxyphenyl)piperazinyl)ethyl]-4H-1,3-benzoxazin-4-one]"
